Results: patent publication US4427668A, “26-Hydroxycholesterol and derivatives and analogs thereof in regulation of cholesterol accumulation in body tissue” (New York University, priority 1982, dated 1984)

Columns and labels:
[1] = test system: HMG-CoA reductase; conditions: 2.5 μM, 5 hours; Chang et al, J. Biol. Chem. 256:6304 (1981); cited from earlier work
[2] = test system: HMG-CoA reductase; assay: HMG-CoA reductase activity in Chinese hamster ovary (CHO-K1) cell culture, as mevalonate formed; assay type: cell-based; conditions: CHO-K1 cells
Description: The effect of 26-hydroxycholesterol on HMG-CoA reductase activity was determined using the procedures of Chang et al, J. Biol. Chem. 256:6304 (1981). Chinese hamster ovary cells, CHO-Kl cells (also referred to as wild type) were obtained from the American Type Culture Collection and grown in Falcon flasks on Ham's F-12 media containing 10% fetal calf serum. Approximately 21/2 days after cells were removed from the stock flask cultures and seeded into petri dishes (60 mm), each containing 0.03×10^6 cells, they were rinsed with phosphate-buffered saline (PBS) and then grown in F-12 media containing 10% delipidated fetal calf serum for 48 hours with one change of media. Following this, either fresh media (still with delipidated calf serum) or fresh media containing 0.14% DMSO alone or 26-hydroxycholesterol was added and the cells incubated for varying periods of time. Our final concentration of DMSO was less than Chang (0.14% vs. 0.3%) and comparison of HMG-CoA reductase activity at 5 hours with media not containing DMSO gives the same or slightly higher (not significant) values. Under these conditions, over 50% inhibition has been obtained using the 0.25 μM concentration of 26-hydroxycholesterol and incubating for 5 hours. Not only is the mean highly significant but none of the individual control flasks overlap with the individual flasks containing 26-hydroxycholesterol. Using a concentration 10 X greater (2.5 μM) of 25-hydroxycholesterol, Chang reported 80% inhibition at 5 hours. Table 1 below sets forth average results of this experiment when carried out on a single day. […] HMG-CoA reductase activity was determined using the double-label technique of Pitot et al, J. Lipid Res. 12:512 (1971) and the thin-layer separation of Shapiro et al, Anal. Biochem. 31:383 (1969). […] The mevalonlactone is separated by thin-layer chromatography and the ^14 C/^3 H ratio determined from which the total amount of ^14 C can be calculated (corrected for ^3 H recovered) and expressed per mg of cytosolic protein by the Lowry method.

| Compound | inhibition of HMG-CoA reductase activity reported by Chang [1] | % Inhibition of HMG-CoA reductase activity ([2]; 0.25 μM in 0.14% DMSO, 5 hours incubation, average of a single day) | HmG Co-A Reductase Activity (as mevalonate formed) ([2]; 0.25 μM in 0.14% DMSO, 5 hours incubation, DMSO control 0.048) | inhibition of HMG-CoA reductase activity ([2]; 0.25 μM, incubating for 5 hours) |
| --- | --- | --- | --- | --- |
| C[C@H](CCCC(C)(C)O)[C@H]1CC[C@H]2[C@@H]3CC=C4C[C@@H](O)CC[C@]4(C)[C@H]3CC[C@]12C [25-hydroxycholesterol] | 80% |  |  |  |
| C[C@@H](CO)CCC[C@@H](C)[C@H]1CC[C@H]2[C@@H]3CC=C4C[C@@H](O)CC[C@]4(C)[C@H]3CC[C@]12C [26-hydroxycholesterol] |  | 65% | 0.017 nMol/min/mg protein | over 50% |
